Data: patent US5856310A, “Inhibition of farnesyltransferase” (University of Pittsburgh, priority 1995, dated 1999)
Where two headings read alike, the source gives them in different places. Peptide text beside a SMILES is read from it. * marks the point of attachment. Cbz = O=C(OCc1ccccc1)*

Key:
[1] = test system: p21ras plasma membrane association in EJ3 cells; test: p21ras membrane association in EJ3 cells (immunoprecipitation, Western blot); format: cell-based, murine; settings: FIG. 6
Source text: This is indicated by FIG. 6. EJ3 cells were exposed to saline, lovastatin, C-AMBA-M or BBM-C-AMBA-M and p21ras immunoprecipitated with the anti-ras antibody Y13-259 (Oncogene Science Inc.). Membrane-bound and cytosolic p21ras were separated by SDS-PAGE and Western blotted with an anti-p21ras antibody (Y13-259). Control cells (saline-treated) contained only membrane-bound p21ras.

[2] = biological target: T1, p21ras farnesyltransferase from EJ3 cells (Mus musculus, UniProt Q61239+Q8K2I1); test: p21ras farnesyltransferase inhibition, enzyme from EJ3 cells; format: biochemical, murine
T1 construct: p21ras farnesyltransferase was partially purified from EJ3 cells by DEAE-chromatography; endogenous in cells; host or cells: EJ3 cells (H-ras-transformed Balb/c 3T3 murine fibroblasts)
T1 sequence (Q8K2I1 whole entry, one chain of several): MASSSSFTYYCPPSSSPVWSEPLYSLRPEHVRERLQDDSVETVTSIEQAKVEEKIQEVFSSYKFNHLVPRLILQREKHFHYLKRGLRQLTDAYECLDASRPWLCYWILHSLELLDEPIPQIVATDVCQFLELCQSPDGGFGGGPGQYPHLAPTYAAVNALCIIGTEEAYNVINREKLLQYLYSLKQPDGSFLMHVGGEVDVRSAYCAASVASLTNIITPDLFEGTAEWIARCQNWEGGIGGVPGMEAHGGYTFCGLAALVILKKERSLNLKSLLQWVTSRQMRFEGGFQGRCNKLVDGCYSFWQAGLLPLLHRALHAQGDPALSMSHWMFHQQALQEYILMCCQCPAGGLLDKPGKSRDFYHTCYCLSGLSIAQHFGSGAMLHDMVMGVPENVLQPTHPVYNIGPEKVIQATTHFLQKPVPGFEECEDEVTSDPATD
Procedure: Human colon carcinoma COLO-205 cells (ATCC, Rockville, Md.) were grown to confluency in RPMI containing 10% FBS, 1% penicillin/streptomycin at 37° C and 10% Co2 atmosphere. The cells were homogenized in lysis buffer (10 mM Hepes pH 7.4, 1 mM MgCl2, 1 mM EDTA, 0.1 mM DDT, and 0.1 mM PMSF) and centrifuged at 12,000×g followed by a 60,000×g centrifugation of the supernatant. p21ras farnesyltransferase from 60,000×g supernatant fractions was then partially purified by DEAE-sephacel chromatography where it was eluted with 50 mM Tris (pH 7.5) containing 0.4M NaCl. p21ras farnesyltransferase activity was determined by measuring the amount of [3H]FPP transferred to recombinant p21H-ras as previously described (15,16). p21H-ras was isolated from E. coli strain RRI expressing p21H-ras (Hoffman-LaRoche, Inc.) as described previously (25) except for the last step of purification where HPLC was replaced by DEAE-sephacel chromatography. For peptide inhibition studios, CA1 A2 X peptides and peptidomimetics were premixed with p21ras farnesyltransferase (40 μg) prior to adding the reaction mixture (50 Mm Tris (pH. 7.5), 50 μM ZnCl2, 20 mM KCl, 1 mM DTT, 20 μM p21H-ras, 9 mmol [3H]FPP). After incubation for one hour at 37° C., the reaction was stopped and filtered on glass fibers as described earlier (15,16). […] The results for C-AMBA-M (.quadrature.), CVIM (.circle-solid.), CIIM (Δ), CVVM (.gradient.) and VCIM (.smallcircle.) are indicated in FIG. 1. The data presented is representative of three independent experiments.
The ability of CA1 A2 X tetrapeptides, peptidomimetics and corresponding functionalized derivatives to inhibit p21ras farnesyltransferase from EJ3 cells was determined in vitro as described above (Example 9). p21ras farnesyltransferase was partially purified from EJ3 cells by DEAE-chromatography as described above (Example 9) and incubated with various concentrations of peptides and peptidomimetics. The ability of these drugs to inhibit the transfer of [3H]FPP to recombinant p21ras was determined as described (Example 9).

A-31 cells = test: Cell growth inhibition, MTT assay, A-31 cells; format: cell-based, murine; settings: concentrations of 500 μM, FIG. 7B
Procedure: (§1) The ability of the peptides and their bis-carbobenzyloxy methyl ester derivatives (using BBM-CA1 A2 X; BBM-C-AMBA-M as examples) to inhibit tumor cell growth was determined by the well-known MTT assay. Ras oncogene-transformed EJ3 cells (a balbc 3T3 murine fibroblast (A-31) transformed with H-ras oncogene from a human bladder carcinoma) were exposed to various concentrations of peptides, peptidomimetics and their functionalized derivatives. Four days later, the percentage of live cells present relative to control was determined for each drug concentration. The extent of cell proliferation in the absence of drug was used as 100% proliferation.
An important aspect of the invention is the finding that the antitumor activity of the peptidomimetics of the invention are selective for ras-transformed cells as compared to their non-transformed parent cell line. A-31 is a normal, non-tumorigenic cell line clone from balb murine fibroblasts. EJ3 is a tumorigenic (produces tumors when injected into mice) cell line that was obtained by transforming A-31 cells with H-ras isolated from a human bladder tumor. The ability of BBM-peptides and peptidomimetics to inhibit cell growth of these two related cell lines (A-31 and EJ3) was determined by MTT assay as described above.

[3] = test system: Ras oncogene-transformed EJ3 cells; format: cell-based, murine
Procedure: as §1

[4] = biological target: T2, p21ras farnesyltransferase from Burkitt's lymphoma (Daudi) (Homo sapiens, UniProt P49354+P49356); test: p21ras farnesyltransferase activity assay, enzyme from Daudi; format: biochemical
T2 construct: Partially purified p21ras farnesyltransferase from human tumors; endogenous in cells; host or cells: Daudi Burkitt's lymphoma cells
T2 sequence (P49356 whole entry, one chain of several): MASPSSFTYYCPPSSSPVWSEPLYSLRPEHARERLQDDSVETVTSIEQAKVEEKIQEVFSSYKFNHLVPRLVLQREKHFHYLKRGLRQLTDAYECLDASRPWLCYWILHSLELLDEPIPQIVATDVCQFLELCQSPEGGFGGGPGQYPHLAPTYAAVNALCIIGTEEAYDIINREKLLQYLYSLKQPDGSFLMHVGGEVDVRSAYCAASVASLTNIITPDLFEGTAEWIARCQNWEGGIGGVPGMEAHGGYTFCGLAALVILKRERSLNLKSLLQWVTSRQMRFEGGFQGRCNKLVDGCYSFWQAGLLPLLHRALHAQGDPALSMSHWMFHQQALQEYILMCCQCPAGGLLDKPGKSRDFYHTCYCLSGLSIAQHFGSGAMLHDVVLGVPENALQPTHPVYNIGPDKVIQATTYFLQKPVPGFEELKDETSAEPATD
Procedure: (§2) Human colon carcinoma COLO-205 cells (ATCC, Rockville, Md.) were grown to confluency in RPMI containing 10% FBS, 1% penicillin/streptomycin at 37° C and 10% Co2 atmosphere. The cells were homogenized in lysis buffer (10 mM Hepes pH 7.4, 1 mM MgCl2, 1 mM EDTA, 0.1 mM DDT, and 0.1 mM PMSF) and centrifuged at 12,000×g followed by a 60,000×g centrifugation of the supernatant. p21ras farnesyltransferase from 60,000×g supernatant fractions was then partially purified by DEAE-sephacel chromatography where it was eluted with 50 mM Tris (pH 7.5) containing 0.4M NaCl. p21ras farnesyltransferase activity was determined by measuring the amount of [3H]FPP transferred to recombinant p21H-ras as previously described (15,16). p21H-ras was isolated from E. coli strain RRI expressing p21H-ras (Hoffman-LaRoche, Inc.) as described previously (25) except for the last step of purification where HPLC was replaced by DEAE-sephacel chromatography. For peptide inhibition studios, CA1 A2 X peptides and peptidomimetics were premixed with p21ras farnesyltransferase (40 μg) prior to adding the reaction mixture (50 Mm Tris (pH. 7.5), 50 μM ZnCl2, 20 mM KCl, 1 mM DTT, 20 μM p21H-ras, 9 mmol [3H]FPP). After incubation for one hour at 37° C., the reaction was stopped and filtered on glass fibers as described earlier (15,16).
(§3) To determine the potency of the novel peptidomimetics relative to their parent tetrapeptides, the potency of CA1 A2 X corresponding to the carboxyl terminus ends of p21 KA -ras, p21 KB -ras and p21N-ras to inhibit p21ras farnesyltransferase from human colon carcinoma (COLO-205) and Burkitt's lymphoma (Daudi) was determined.

[5] = biological target: T3, p21ras farnesyltransferase from human colon carcinoma (COLO-205) (Homo sapiens, UniProt P49354+P49356); test: p21ras farnesyltransferase activity assay, enzyme from COLO-205; format: biochemical; settings: for inhibition of p21ras farnesyltransferase (in words): human tumor enzyme (COLO-205 and Daudi), concentrations as high as 10 μM
T3 construct: p21ras farnesyltransferase from 60,000×g supernatant fractions was then partially purified by DEAE-sephacel chromatography; endogenous in cells; host or cells: COLO-205 human colon carcinoma cells (cytosolic 60,000×g supernatant, DEAE-sephacel fraction)
Procedure: as §2, §3

[6] = Table 2, read-out: IC50 (uM) Farnesyltransferase
[7] = enzyme from EJ3 cells, FIG. 5A/5B, read-out: p21ras farnesyltransferase IC50
[8] = MTT, four days, FIG. 4A/4B, read-out: EJ3 cell growth inhibition IC50
[9] = Table 2, ras oncogene-transformed cells, read-out: IC50 (uM) Growth Studies
[10] = partially purified enzyme from Daudi, transfer of farnesyl to recombinant p21 H-ras, read-out: IC50 (μM) Daudi
[11] = partially purified enzyme from COLO-205, transfer of farnesyl to recombinant p21 H-ras, read-out: IC50 (μM) COLO-205
[12] = read-out: IC50, p21ras farnesyltransferase from Daudi

Compound | IC50 [2, 6] | IC50 [3, 9] | IC50 [4, 10] | IC50 [5, 11] | other results
COC(=O)[C@H](CCSC)NC(=O)c1cccc(CNC(=O)[C@H](CSC(=O)OCc2ccccc2)NC(=O)OCc2ccccc2)c1 [BBM-C-AMBA-M, N, S-DiCBZ-Cys-AMBA-Met-OCH3] | > 100 µM | 12.1 ± 1 µM |  |  | inhibition of p21ras plasma membrane association (in words) [1]: inhibited p21ras plasma membrane association; IC50 [2, 7]: > 100 µM; effect on A-31 cell growth (in words) (A-31 cells): not much affected; IC50 [3, 8]: 10 µM; IC50 ([3]; MTT, selectivity study, FIG. 7A/7B, read-out: EJ3 cell growth inhibition IC50): 20 µM
CC[C@H](C)[C@H](NC(=O)[C@H](CS)NC(=O)[C@@H](N)C(C)C)C(=O)N[C@@H](CCSC)C(=O)O [VCIM, reference compound] (H-VCIM-OH) | 40 µM |  | > 10 µM | > 10 µM | IC50 [2, 7]: > 10 µM
CC[C@H](C)[C@H](NC(=O)[C@@H](NC(=O)[C@H](CSC(=O)OCc1ccccc1)NC(=O)OCc1ccccc1)C(C)C)C(=O)N[C@@H](CCSC)C(=O)OC [BBM-VCIM] (Cbz-C(Cbz)VIM-OMe) |  | 215 ± 66 µM |  |  | 
CC(C)C[C@H](NC(=O)c1cccc(CNC(=O)[C@@H](N)CS)c1)C(=O)O [C-AMBA-L, Cys-AMBA-Leu] |  |  | > 10 µM | > 10 µM | inhibition of p21ras farnesyltransferase (in words) [5]: had no inhibitory activity
O=C(N[C@@H](CSC(=O)OCc1ccccc1)C(=O)O)OCc1ccccc1 [BB-Cys, N S-DiCBZ-cysteine] |  | 275 ± 41 µM |  |  | 
N[C@@H](CS)C(=O)NCc1cccc(C(=O)N[C@@H](Cc2ccccc2)C(=O)O)c1 [C-AMBA-F, Cys-AMBA-Phe] |  |  | 0.6 µM | 0.53 µM | IC50 [4, 12]: 0.6 µM
NCCCC[C@H](NC(=O)c1cccc(CNC(=O)[C@@H](N)CS)c1)C(=O)O [C-AMBA-K, Cys-AMBA-Lys] |  |  | > 10 µM | > 10 µM | inhibition of p21ras farnesyltransferase (in words) [5]: abolished p21ras farnesyltransferase inhibition activity
CC[C@H](C)[C@H](NC(=O)[C@@H](NC(=O)[C@@H](N)CS)[C@@H](C)CC)C(=O)N[C@@H](CCSC)C(=O)O [CIIM, reference compound] (H-CIIM-OH) |  |  | 0.83 µM | 0.53 µM | 
CC[C@H](C)[C@H](NC(=O)[C@@H](NC(=O)[C@@H](N)CS)C(C)C)C(=O)N[C@@H](CCSC)C(=O)O [CVIM, Cys-Val-Ile-Met, reference compound] (H-CVIM-OH) | 0.35 µM |  |  |  | IC50 [4, 12]: 0.19 µM; IC50 ([2]; enzyme from EJ3 cells, FIG. 5A, read-out: p21ras farnesyltransferase IC50): 0.4 µM
Ser-AMBA-Met [S-AMBA-M] |  |  | > 10 µM | > 10 µM | inhibition of p21ras farnesyltransferase (in words) [5]: did not inhibit
Cys-AMBA-Glu [C-AMBA-E] |  |  | 1.54 µM | 1.42 µM | reduction of ability to inhibit the enzyme relative to Cys-AMBA-Met ([4]; Daudi): 13 fold; reduction of ability to inhibit the enzyme relative to Cys-AMBA-Met ([5]; COLO-205): 24 fold
CSCC[C@H](NC(=O)[C@@H](NC(=O)[C@@H](NC(=O)[C@@H](N)CS)C(C)C)C(C)C)C(=O)O [CVVM, Cys-Val-Val-Met, reference compound] (H-CVVM-OH) |  |  | 0.61 µM | 0.46 µM | 
CSCC[C@H](NC(=O)c1cccc(CNC(=O)[C@@H](N)CS)c1)C(=O)O [C-AMBA-M, Cys-AMBA-Met] | 3.1 µM | 627 ± 178 µM |  | 0.06 µM | increase in potency over CIIM ([4]; Daudi): 6.9 fold; increase in potency over CVIM ([4]; Daudi): 1.6 fold; increase in potency over CVVM ([4]; Daudi): 5.1 fold; IC50 [4, 12]: 0.12 µM; inhibition of p21ras plasma membrane association (in words) [1]: did not inhibit p21ras plasma association; IC50 [2, 7]: 2 µM; increase in potency over CIIM ([5]; COLO-205): 8.8 fold; increase in potency over CVIM ([5]; COLO-205): 3.3 fold; increase in potency over CVVM ([5]; COLO-205): 7.7 fold; IC50 ([5]; read-out: IC50, p21ras farnesyltransferase from COLO-205): 0.06 µM; IC50 [3, 8]: 1500 µM
CC[C@H](C)[C@H](NC(=O)[C@@H](NC(=O)[C@H](CSC(=O)OCc1ccccc1)NC(=O)OCc1ccccc1)C(C)C)C(=O)N[C@@H](CCSC)C(=O)OC [BBM-CVIM] (Cbz-C(Cbz)VIM-OMe) | > 100 µM |  |  |  | IC50 [2, 7]: > 10 µM
CC[C@H](C)C(=O)O[C@H]1C[C@@H](C)C=C2C=C[C@H](C)[C@H](CC[C@@H]3C[C@@H](O)CC(=O)O3)[C@H]21 [Lovastatin, reference compound] |  |  |  |  | inhibition of p21ras plasma membrane association (in words) [1]: inhibited p21ras membrane association
CC[C@H](C)[C@H](NC(=O)[C@@H](NC(=O)[C@@H](N)CS)C(C)C)C(=O)N[C@@H](CCSC)C(=O)OC [M-CVIM] (HELM PEPTIDE1{C.V.I.M.[CO[*:1]]}$$$$V2.0) | 4.5 µM | 200 ± 58 µM |  |  | 
